Laboratory results published in patent US9012397B2 (priority 2011, dated 2015).
Where two headings read alike, the source gives them in different places.

What was measured:
Type in all cases: in vivo, human
[1] = system: Herpes simplex
Method: (§1) The method of the invention has been carried out with respect to a number of skin disorders. The patients were treated with one of two peptides, each at a concentration of 50 μg/gr cream (unless otherwise indicated):
(§2) The cream was manufactured by Amiga LTD, Israel, and contains the following components:
5. A person suffered for many years from Herpes simplex on the neck, with no relief from commercial remedies. ZEP3 was applied topically once a day to the lesions. • Results: relief in itching and skin rash within 10-20 min.
6. person two was diagnosed with Herpes simplex.
7. person one was diagnosed with Herpes simplex.
8. person four suffered from Herpes simplex from childhood.
9. A person suffered from Herpes simplex lesions on the lips and face. […] 1-2 applications cause the lesions to disappear.
10. A person suffered from Herpes simplex on the lips, mainly when under pressure. […] The blisters disappeared after 24 hours.
11. A person suffered from Herpes simplex on the lips. ZEP3 (500 μg/gr cream) was topically applied several times during the day on the wound. • Results: the person felt relief after several minutes. The itching and redness lessened immediately and the wound disappeared after 36 hours.
12. 7 subjects suffering from Herpes simplex were treated with ZEP3.
13. A person suffered from Herpes simplex lesions on the lips.
14. A person has a festering Herpes simplex lesion. Generally, 10 days are required for recuperation.
15. A person suffered intermittingly from Herpes simplex on the lips, with blisters.

[2] = system: flea bites
Method: as §1, §2
1. person two was bitten by fleas on various occasions, resulting in an itching sensation. […] The ointment was reapplied after 6 hours.
2. person one who is very sensitive to flea bites was bitten by fleas, resulting in an itching sensation. […] The ointment should be reapplied after 12 hours.

[3] = system: Herpes zoster; conditions: person, lesions with skin edema on mid back; 50 μg/gr cream, applied 4-5 times
Method: as §1, §2
1. A person was diagnosed with Herpes zoster (shingles), which appeared as a painful, circumferential rash in the abdominal area. The patient had been on antibiotics, with no improvement.
2. A person was diagnosed with Herpes zoster, which appeared as painful lesions with skin edema on the mid back area, appearing several times a year. […] Decrease in the skin rash and the degree of the sore and swelling and a shortening of the time of recovery (healing).

[4] = system: burns
Method: as §1, §2
1. A person was lightly burned on the back of the hand which touched a very hot object. ZEP4 was immediately applied to the burn site. • Results: the burn mark disappeared within 1 hour. No additional treatments were necessary.
2. A person was severely burned by boiling water on the palm of the hand. […] At the end of 2 weeks there was no sign of the burn, nor thereafter.
3. person two was lightly burned on their finger from boiling oil. […] No further treatments were necessary.
5. A person was burnt on their hand from an oven. […] The burn took on a light brown color.
6. 4 light burn cases, three from touching a hot surface and one from a chemical substance in a laboratory, were treated with ZEP3.
8. person three with irritated skin on the hand due to the rubbing of a watch band. The irritated skin came into contact with a chemical substance (used as a disinfectant). A severe redness developed similar to a burn, and a strong itching feeing. […] D. Oral Cavity

[5] = system: rash
Method: as §1, §2
1. A rash appeared on the wrist of person two, apparently as an allergic response to a watch band. Large red spots appeared around the wrist.
2. A rash appeared in the underarm area of a person, apparently due to sweat and rubbing of the bra strap. […] F. Psoriasis

[6] = system: bee stings
Method: as §1, §2
3. A person was stung by a bee.
4. person four was stung by bees on both hands.
5. person three was stung by bees on both hands.

[7] = system: psoriasis; conditions: person
Method: as §1, §2
1. A person suffered from intermittent psoriasis on their head over many years. […] The patient believes that the frequency of the outbreaks has been reduced.
2. A person suffered from psoriasis on the hands. […] The patient believes that a 20% improvement has occurred over 2 weeks.
3. A person suffered from psoriasis in the anus.
4. A person suffered from extensive psoriasis at various locations. ZEP3 (500 μg/gr cream) was applied to the sores as needed. • Results: the itching ceased within 12 hours.
5. A person suffered from chronic psoriasis on the elbow.
6. A person suffered from severe psoriasis at various locations. They regularly went for treatments to the Dead Sea in Israel.

[8] = system: skin infection; conditions: person two, wrist infection, allergic reaction to watch band; 50 μg/gr cream several times a day
Method: as §1, §2
1. person two suffered from an infection on the wrist of the left hand, apparently an allergic reaction to a watch band. Large spots appeared around the wrist accompanied by redness.
2. person three suffered from an infection on the wrist of the left hand, apparently an allergic reaction to a watch band. Large spots appeared around the wrist accompanied by redness and itching.
3. 2 cases of infected skin wounds.

[9] = system: itching; conditions: person
Method: as §1, §2
1. A person suffered from a strong itching sensation on the skin all over the body for no apparent reason.
2. A person suffered from a red rash and itching sensation on their breast. ZEP4 (500 μg/gr cream) was applied twice in a period of 2 hours. • Results: relief from itching within 10 minutes.
3. A person suffered from a strong itching sensation in the lower limbs which sometimes spread to the abdomen and back. […] I. Skin Infection

[10] = system: radiation burns
Method: as §1, §2
4. A person with breast cancer received radiation treatment. The person suffered from radiation burns in a large skin area with blisters and open wounds. ZEP4 was applied directly to the wounds over a period of 12 days, 1-2 times per day. • Results: an immediate (˜1 minute) ease in the itching and burning sensation.
7. person two with breast cancer after mastectomy received radiation treatment. The person suffered from severe radiation burns.

[11] = system: mosquito bites; conditions: two males and four females, 30-57 years old; (500 μg/gr cream) as needed
Method: as §1, §2
8. males and four females suffered from mosquito bites. […]
9. 3 subjects suffering from mosquito bites were treated with ZEP3.

[12] = person one, 50 μg/gr cream several times
[13] = person two, 50 μg/gr cream several times
[14] = person, lips, 50 μg/gr cream several times a day at onset of pricking sensation
[15] = person, severe boiling water burn on palm, 50 μg/gr cream immediately and every day for 2 weeks
[16] = red rash and itching on breast, 500 μg/gr cream twice in 2 hours
[17] = person, breast cancer radiation burns with blisters and open wounds, 50 μg/gr cream 1-2 times per day for 12 days

pGLU-ASN-TRP-THR [ZEP4]
clinical outcome as compared to treatment with Zovirax® ([1]; person four, 50 μg/gr cream several times): Rapid drying of the lesion, shrinking of swelling and swift conclusion of the outbreak
clinical outcome [1, 12]: rapid drying of the lesion, as well as shortened scab formation
time to reduction in the stinging/itching feeling [1, 12]: 10 to 20 min
clinical outcome [1, 13]: the development of the lesion was stopped, scab formation began and the stinging/itching feeling disappeared
scab formation as compared to treatment with Zovirax® [1, 13]: shortened
clinical outcome [1, 14]: immediate reduction in the pricking sensation
time until blisters disappeared [1, 14]: 24 h
clinical outcome ([1]; person, lips, 200 μg/gr cream at onset of pricking sensation or lesions): immediate relief; the disease did not develop further
clinical outcome ([2]; person one very sensitive to flea bites, 50 μg/gr cream): almost immediate cessation of the itching sensation
clinical outcome ([2]; person two, 50 μg/gr cream several times to bite location): immediate cessation of the itching sensation
clinical outcome [3]: reduced skin edema and an increase in the intervals between attacks. Decrease in the skin rash and the degree of the sore and swelling and a shortening of the time of recovery (healing)
clinical outcome ([4]; person three, irritated skin on hand contacted a disinfectant, burn-like redness and itching, ZEP4 and ZEP3 each 500 μg/gr cream): immediate relief from the redness and itching
clinical outcome ([4]; person two, light burn on finger from boiling oil, 50 μg/gr cream applied immediately): the swelling went down until it completely disappeared
clinical outcome ([4]; person, hand burnt from an oven, 50 μg/gr cream applied immediately): the pain and redness immediately subsided
time until burn mark disappeared ([4]; person, light burn on back of hand from hot object, 50 μg/gr cream applied immediately): ≤ 1 h
clinical outcome [4, 15]: blisters began to appear and then shortly disappeared
time until no sign of the burn [4, 15]: 2 weeks
clinical outcome ([5]; person two, wrist rash, allergic response to watch band, 50 μg/gr cream several times a day): a reduction in the redness and in the diameter of the spots
clinical outcome ([5]; person, underarm rash, 50 μg/gr cream twice a day for three days): the redness began to decrease shortly after treatment, and after a few days completely disappeared
clinical outcome ([6]; person four, both hands stung, 1000 μg/gr cream once to one hand, about 10 minutes after sting): the swelling shrunk and the redness decreased to an identical degree on each hand
clinical outcome ([6]; person three, both hands stung, 1000 μg/gr cream once to one hand, about 10 minutes after sting): the swelling shrunk and the redness decreased to an identical degree on each hand
clinical outcome ([6]; person, 50 μg/gr cream, one application 24 hours after the sting): immediate reduction in the redness, swelling and pain
time until relief is felt ([7]; psoriasis in the anus, (500 μg/gr cream) once a day): 4 days
clinical outcome ([7]; psoriasis in the anus, (500 μg/gr cream) once a day, stopped several days, repeated for 4 days): the psoriasis disappeared
clinical outcome ([7]; psoriasis on hands, 500 μg/gr cream once a day): feels relief; the skin is pleasant feeling and not itchy
improvement as believed by the patient ([7]; psoriasis on hands, 500 μg/gr cream once a day, over 2 weeks): 20%
clinical outcome ([7]; severe psoriasis at various locations, 500 μg/gr cream): the itching ceased and the normal skin appearance returned
clinical outcome [8]: a decrease in redness and the size of the spots
clinical outcome [9, 16]: The rash disappeared after several hours
time to relief from itching [9, 16]: ≤ 10 min
clinical outcome ([9]; strong itching in lower limbs, 500 μg/gr cream as needed): immediate relief
clinical outcome ([10]; person two after mastectomy, severe radiation burns, 500 μg/gr cream several times per day): felt immediate relief
clinical outcome [10, 17]: The therapeutic effect repeated itself after each treatment
time to ease in the itching and burning sensation [10, 17]: ~1 min
clinical outcome [11]: an immediate relief from the itching sensation was felt
